In patent US10024865B2, “Ubiquitination assay” (ITI Scotland Limited, priority 2010, dated 2018):
“And” between values parts separate entries of the source, which are not always exact repeats. Equal values may be shown once. “Also recorded” adds a separate entry of the source.

How the values were obtained:
SCF^Skp2/Cks1 = system: T1, SCF^Skp2/Cks1; assay: 'Live' SCF^Skp2/Cks1 assay (E3 assay, p27 ubiquitination), ECL; assay type: biochemical, human; details: for follow up IC50 (in words): titration from 300 μM to 10 nM
T1 construct: 6His-Skp2-(isoform 1, hu,FL), GST-Skp1-; (hu,FL), 6His-Cul1-(hu,FL), UT-Rbx1-; 6His-Cks1-(hu,FL); 6His (N); GST (N); made in house
T1 sequence (Q13309 whole entry, canonical isoform): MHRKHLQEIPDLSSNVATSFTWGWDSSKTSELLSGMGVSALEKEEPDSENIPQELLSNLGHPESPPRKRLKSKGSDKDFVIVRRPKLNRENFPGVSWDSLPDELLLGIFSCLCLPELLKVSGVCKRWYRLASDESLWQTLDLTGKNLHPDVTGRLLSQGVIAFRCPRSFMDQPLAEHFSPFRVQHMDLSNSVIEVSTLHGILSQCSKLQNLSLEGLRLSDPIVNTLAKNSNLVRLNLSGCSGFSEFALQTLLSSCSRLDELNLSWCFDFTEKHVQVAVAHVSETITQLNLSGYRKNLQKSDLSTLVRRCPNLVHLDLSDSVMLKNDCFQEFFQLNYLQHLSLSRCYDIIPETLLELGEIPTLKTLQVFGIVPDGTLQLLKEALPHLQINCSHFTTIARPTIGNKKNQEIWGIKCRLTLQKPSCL
T1 sequence (P63208 1-160 isoform P63208-2, further chain): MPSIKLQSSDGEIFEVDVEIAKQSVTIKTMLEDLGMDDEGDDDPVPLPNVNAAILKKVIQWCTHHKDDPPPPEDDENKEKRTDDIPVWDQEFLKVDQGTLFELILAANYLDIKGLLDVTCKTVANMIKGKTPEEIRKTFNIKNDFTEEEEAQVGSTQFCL
T1 sequence (Q13616 whole entry, further chain, canonical isoform): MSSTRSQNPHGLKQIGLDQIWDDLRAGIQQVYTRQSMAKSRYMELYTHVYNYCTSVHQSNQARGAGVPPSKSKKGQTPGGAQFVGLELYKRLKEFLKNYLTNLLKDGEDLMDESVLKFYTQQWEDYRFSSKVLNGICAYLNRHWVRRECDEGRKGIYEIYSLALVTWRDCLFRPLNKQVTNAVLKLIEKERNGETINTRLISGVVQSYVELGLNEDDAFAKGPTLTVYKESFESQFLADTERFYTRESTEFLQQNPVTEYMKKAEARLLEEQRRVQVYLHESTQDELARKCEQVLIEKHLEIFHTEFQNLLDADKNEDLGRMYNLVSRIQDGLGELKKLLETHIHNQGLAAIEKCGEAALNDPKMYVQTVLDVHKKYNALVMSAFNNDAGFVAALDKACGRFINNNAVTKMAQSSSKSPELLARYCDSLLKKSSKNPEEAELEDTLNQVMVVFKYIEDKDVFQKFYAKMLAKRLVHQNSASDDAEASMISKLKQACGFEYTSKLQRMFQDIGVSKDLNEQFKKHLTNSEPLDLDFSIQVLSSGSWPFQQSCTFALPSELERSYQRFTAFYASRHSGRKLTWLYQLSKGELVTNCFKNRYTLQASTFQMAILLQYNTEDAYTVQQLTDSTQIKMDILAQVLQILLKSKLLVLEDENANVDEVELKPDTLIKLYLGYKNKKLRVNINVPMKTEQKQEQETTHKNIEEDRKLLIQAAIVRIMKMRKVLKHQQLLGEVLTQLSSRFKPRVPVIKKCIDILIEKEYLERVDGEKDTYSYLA
T1 sequence (P62877 whole entry, further chain, canonical isoform): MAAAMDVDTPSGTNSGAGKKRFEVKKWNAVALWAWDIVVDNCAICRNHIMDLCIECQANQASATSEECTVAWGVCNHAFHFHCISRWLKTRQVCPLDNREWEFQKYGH
T1 sequence (P61024 whole entry, further chain, canonical isoform): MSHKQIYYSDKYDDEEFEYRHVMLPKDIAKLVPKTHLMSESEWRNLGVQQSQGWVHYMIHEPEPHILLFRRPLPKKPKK
Description: FIG. 23 (a): ‘Live’ SCF^Skp2/Cks1 Assay—ECL ubiquitin titration. Used 60 minute incubation; 25 nM c-Myc p27; anti c-Myc capture for p27 (Millipore 05-274, 1/500); 5 nM E1; 1 μM E2 (HA); 25 nM E3/Cks1; 5 to 0.08 μM Ub; 1000 to 15 μM ATP; streptavidin sulfo tag (MSD, R32AD-1, 1 μg/ml). Hyperbolic increase in signal with [Ub]. Optimum signal after 2 μM ubiquitin. Largely […] of ATP concentration. […] Final assay concentration is set at 2 μM.
FIG. 23 (b): ‘Live’ SCF^Skp2/Cks1 Assay—ECL ATP titration. Used 60 minute incubation; 25 nM c-Myc p27; anti c-Myc capture for p27 (Millipore 05-274, 1/500); 5 nM E1; 1 μM E2 (HA); 25 nM E3/Cks1; 2 μM Ub; 1000 to 7 μM ATP; streptavidin sulfo tag (MSD, R32AD-1, 1 μg/ml). Initial experiments indicated a high signal which was independent of ATP concentration (lowest [ATP] of 21 μM)—indicative of tight binding. […] Km estimated at 4 μM. Final assay concentration set at 100 μM.
FIG. 30 (a): ‘Live’ SCF^Skp2/Cks1 Assay—ECL Inhibitor study—PYR-41 (E1 inhibitor).
FIG. 32: ‘Live’ SCF^Skp2/Cks1 Assay—ECL R140 Kinase inhibitor panel. Used 60 minute incubation; 25 nM c-Myc p27; anti-c-Myc capture for p27 (Millipore 05-274, 1/500); 5 nM E1; 1 μM E2 (HA); 25 nM E3 tetramer; 25 nM Cks1; 2 μM Ub; 100 μM ATP; streptavidin sulfo tag (MSD, R32AD-1, 1 μg/ml).
FIG. 34: ‘Live’ SCF^Skp2/Cks1 Assay—ECL follow up IC50s. Used 60 minute incubation; 25 nM c-Myc p27; anti c-Myc capture for p27 (Millipore 05-274, 1/500); 5 nM E1; 1 μM E2 (HA); 25 nM E3 tetramer; 25 nM Cks1; 2 μM Ub; 100 μM ATP; streptavidin sulfo tag (MSD, R32AD-1, 1 μg/ml). Titration of PYR41 (Calbiochem 662105) from 300 μM to 10 nM (control). Titration of Rottlerin, EGCG, AG538 and K252c from 300 μM to 10 nM.
(§1) Each of the assays in the p27 ubiquitination cascade (E1, E2 and E3) were tested against the E1 inhibitor PYR-41. No pre-charging of either the E1 or E2 was carried out prior to the introduction of the compound although in the E3 assay, p27 phosphorylation by CDK2/Cyclin E was carried out in the absence of inhibitor.
In order to test the feasibility of screening the E3 assay against a range of inhibitors, the assay was tested against a panel of 41 inhibitors (40 known kinase inhibitors and PYR-41) (FIG. 31). […] Using the same assay conditions, the E3 assay was tested against these inhibitors (FIG. 33).

Ube1 [1] = target: T2, Ube1 (Homo sapiens, UniProt P22314); assay: Ube1 (E1) assay, ECL; assay type: biochemical; details: 50 nM E1, 2 μM Ub
T2 construct: 6His-UBE1-(hu,FL) (E1); made in house
T2 sequence (P22314 1-1058): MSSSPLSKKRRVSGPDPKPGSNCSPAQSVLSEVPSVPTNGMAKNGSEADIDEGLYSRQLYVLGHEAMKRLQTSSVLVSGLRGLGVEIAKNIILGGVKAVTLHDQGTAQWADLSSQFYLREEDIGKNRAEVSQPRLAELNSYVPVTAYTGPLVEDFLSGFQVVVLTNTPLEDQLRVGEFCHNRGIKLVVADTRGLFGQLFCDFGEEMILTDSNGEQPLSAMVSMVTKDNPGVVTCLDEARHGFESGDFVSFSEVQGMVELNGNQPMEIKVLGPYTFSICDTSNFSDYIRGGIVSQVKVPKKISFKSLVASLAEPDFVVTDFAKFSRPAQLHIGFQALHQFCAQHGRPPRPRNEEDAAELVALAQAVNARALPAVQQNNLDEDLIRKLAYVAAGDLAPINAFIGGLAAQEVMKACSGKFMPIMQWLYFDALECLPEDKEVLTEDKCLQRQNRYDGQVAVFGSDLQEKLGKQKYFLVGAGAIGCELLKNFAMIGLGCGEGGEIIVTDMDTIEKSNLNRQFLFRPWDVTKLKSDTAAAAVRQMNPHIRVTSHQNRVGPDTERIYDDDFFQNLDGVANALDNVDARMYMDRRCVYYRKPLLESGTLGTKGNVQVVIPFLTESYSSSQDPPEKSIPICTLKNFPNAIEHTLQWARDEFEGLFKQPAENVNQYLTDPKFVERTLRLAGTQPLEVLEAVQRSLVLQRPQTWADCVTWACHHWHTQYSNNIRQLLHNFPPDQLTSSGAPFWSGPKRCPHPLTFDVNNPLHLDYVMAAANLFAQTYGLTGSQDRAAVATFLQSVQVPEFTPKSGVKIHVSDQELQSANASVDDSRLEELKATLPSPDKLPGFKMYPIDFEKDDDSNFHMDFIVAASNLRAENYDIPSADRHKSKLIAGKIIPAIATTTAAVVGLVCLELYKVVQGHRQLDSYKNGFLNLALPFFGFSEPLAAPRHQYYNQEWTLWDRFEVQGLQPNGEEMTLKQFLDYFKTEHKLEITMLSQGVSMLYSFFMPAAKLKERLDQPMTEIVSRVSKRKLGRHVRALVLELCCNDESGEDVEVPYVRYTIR
Description: FIG. 11: Ube1 inhibitor study PYR41— ECL. Inhibitor study. Titration of PYR41 (Calbiochem 662105) from 300 μM to 10 nM. Used anti-His capture for E1 (Millipore, 16-255, 1/1000 dil); 50 nM E1; 2 μM Ub; 500 μM ATP; 30-minute pre-incubation with cpd.; 30 minute reaction time.
(§2) FIG. 30 (b): E1/E2 Assay—ECL Inhibitor study—PYR-41. Used 60 minute incubation; 2 μM Ub; 100 μM ATP. For E1 assay (Anti-His capture) 50 nM E1. For E2 assay (Anti HA-capture) 5 nM E1; 50 nM E2. Used streptavidin sulfo tag (MSD R32AD-1, 1 μg/ml); titration of PYR41 (Calbiochem 662105) from 300 μM to 10 nM.
For the IC50 determination of Pyr-41, the data shown is that from a 30 minute pre-incubation and a 30 minute assay. The assay was performed in a separate plate and then transferred. For information purposes, another set of assays were performed within the capture/detect plate and stopped immediately by washing off the assay solution, or washed after 60 min. It was interesting to note that even with the wash at time 0 an IC50 for the compound that was in line with the data shown could still be determined.
as §1

Ube1/UbCH3 = target: T3, Ube1/UbCH3 (Homo sapiens, UniProt P22314); assay: E1+E2 (Ube1+UbCH3) assay, HTRF; assay type: biochemical; details: 100 nM E1, 1 μM E2, 400 nM Ub
T3 construct: 6His-UBE1-(hu,FL) (E1); made in house
T3 sequence (P22314 1-1058): T2 sequence (P22314 1-1058)
Description: (§3) FIG. 18: Ube1 Inhibitor study PYR41 in E1 and E1+E2 assay—HTRF. Inhibitor study: 30 minutes pre-incubation with PYR-41. Assays were immediately diluted followed by addition of 2 mM ATP.
BiogenNova quote IC50 value as ˜5 μM.
(§4) Using conditions identified previously, an IC50 determination for Pyr-41 using the E1 and E1/E2 assays was performed. […] This may be a reflection of the higher enzyme concentrations used in the HTRF assay step (FIG. 18).

UbCH3 = target: T4, UbCH3 (Homo sapiens, UniProt P49427); assay: UbCH3 (E2) assay, ECL (anti-HA capture); assay type: biochemical; details: 5 nM E1, 50 nM E2, 2 μM Ub, 100 μM ATP, 60 minute incubation
T4 construct: HA,6His-UbcH3-(hu,FL) (E2); made in house
T4 sequence (P49427 whole entry, one chain of several): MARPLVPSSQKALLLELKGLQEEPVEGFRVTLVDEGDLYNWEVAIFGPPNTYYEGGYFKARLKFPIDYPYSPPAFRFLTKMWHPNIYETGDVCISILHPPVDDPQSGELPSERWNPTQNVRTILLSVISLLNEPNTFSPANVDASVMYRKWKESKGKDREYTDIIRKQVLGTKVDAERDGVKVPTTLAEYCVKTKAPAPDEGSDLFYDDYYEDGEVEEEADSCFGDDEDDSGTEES
Description: as §2, §1

Ube1 [2] = target: T2, Ube1; assay: E1 assay, HTRF; assay type: biochemical; details: 1 μM E1, 2 μM Ub, Anti-6His-K, 30 minutes pre-incubation
Description: as §3, §4

E1 = target: T5, E1 (Homo sapiens, UniProt P22314); details: cited from earlier work
T5 construct: literature BiogenNova / Calbiochem (quoted value)
T5 sequence (P22314 1-1058): T2 sequence (P22314 1-1058)

[3] = ECL E3 assay, kinase inhibitor panel screen

What does the source list for `O=C1NCc2c1c1c3ccccc3[nH]c1c1[nH]c3ccccc3c21` [K252c]?
inhibition in kinase inhibitor panel (in words) (SCF^Skp2/Cks1; [3]): show up as inhibitors; also recorded: moderate amounts of inhibition; follow up IC50 (in words) (SCF^Skp2/Cks1; ECL E3 assay): false positive result

With `N#C/C(=C\c1ccc(O)c(O)c1)C(=O)c1ccc(O)c(O)c1` [AG538] as the compound, how does the “inhibition in kinase inhibitor panel (in words)” value (“inhibition … (in words)” below) (SCF^Skp2/Cks1; [3]) read?
The value was “show up as inhibitors”.

Which IC50 (Ube1 [1]; 500 μM ATP, 30 minute pre-incubation with cpd, 30 minute reaction time) does the source give for `CCOC(=O)c1ccc(N2NC(=O)/C(=C/c3ccc([N+](=O)[O-])o3)C2=O)cc1` [PYR-41] here?
The IC50 was 1.3 µM.

And the IC50 (Ube1 [1]; anti-His capture, 100 μM ATP, 60 minute incubation)?
The IC50 was 7.8 µM.

What about the IC50 (Ube1/UbCH3; Anti-6His-K detection) of the same compound?
The IC50 was 16 µM.

What about the IC50 (Ube1/UbCH3; Anti-FLAG-K detection) of the same compound?
Its IC50 is 20 µM.

And the IC50 (UbCH3)?
The IC50 was 3.2 µM.

What about the IC50 (Ube1 [2]) of the same compound?
Its IC50 is 43 µM.

And the “inhibition in panel of 41 inhibitors” value (SCF^Skp2/Cks1; [3])?
Its value is > 80%.

And the IC50 (SCF^Skp2/Cks1; ECL, 25 nM c-Myc p27, 5 nM E1, 1 μM E2, 25 nM E3 tetramer, 25 nM Cks1, 2 μM Ub, 100 μM ATP, 60 minute incubation)?
Its IC50 is 55 µM and 84 µM.

What about the “reported values for the inhibitor (in words)” value (E1; literature) of the same compound?
Its value is “low micromolar range”.

And the IC50 (E1; quoted by BiogenNova / Calbiochem, vs. E1)?
Its IC50 is ~5 µM.

Which Km (SCF^Skp2/Cks1; ECL E3 assay, ATP titration 1000 to 7 μM, 2 μM Ub, read-out: apparent Km for ATP) does the source give for `Nc1ncnc2c1ncn2[C@@H]1O[C@H](COP(=O)(O)OP(=O)(O)OP(=O)(O)O)[C@@H](O)[C@H]1O` [ATP, Adenosine-5′-Triphosphate] here?
The Km was ~4 µM.

Which “inhibition … (in words)” value (SCF^Skp2/Cks1; [3]) does the source give for `CC(=O)c1c(O)c(C)c(O)c(Cc2c(O)c3c(c(C(=O)/C=C/c4ccccc4)c2O)OC(C)(C)C=C3)c1O` [Rottlerin] here?
The value was “show up as inhibitors; also recorded: moderate amounts of inhibition”.

What about the “follow up IC50 (in words)” value (SCF^Skp2/Cks1; ECL E3 assay) of the same compound?
Its value is “in the μM range”.

With `O=C(O[C@@H]1Cc2c(O)cc(O)cc2O[C@@H]1c1cc(O)c(O)c(O)c1)c1cc(O)c(O)c(O)c1` [EGCG] as the compound, how does the “inhibition … (in words)” value (SCF^Skp2/Cks1; [3]) read?
The value was “show up as inhibitors; also recorded: moderate amounts of inhibition”.

And the “follow up IC50 (in words)” value (SCF^Skp2/Cks1; ECL E3 assay)?
The value was “in the μM range”.
